The numbers were not newly measured in PMC10042540, “Targeting oncogenic KRasG13C with nucleotide-based covalent inhibitors” (eLife, 2023), which cites them from elsewhere.

For this data set, the target named is KRas. Also noted: method as in Jeganathan et al., 2018. The conditions noted are these: reversible affinity; ref Jeganathan et al., 2018; cited from earlier work.

With `Nc1nc2c(ncn2[C@@H]2O[C@H](COP(=O)(O)OP(=O)(O)OCCNC(=O)CCl)[C@@H](O)[C@H]2O)c(=O)[nH]1` [SML-8-73-1], the Kd was roughly 140 nM.

As a reminder, the Kd is the free concentration of one partner at which half of the binding sites on the other are occupied at equilibrium, for simple one-to-one binding.
